Patent US10703698B2, “Compounds which activate estrogen receptors and compositions and methods of using the same” (The Board of Trustees of the University of Illinois, priority 2016, dated 2020)
“Also recorded” adds a separate entry of the source.

Experiments:
[1] = target: T1, purified full-length human ERα (Homo sapiens, UniProt P03372); assay: competitive radiometric binding assay, relative binding affinity (RBA); details: relative to estradiol = 100
T1 construct: using purified full-length human ERα and ERβ
T1 sequence (P03372 1-595): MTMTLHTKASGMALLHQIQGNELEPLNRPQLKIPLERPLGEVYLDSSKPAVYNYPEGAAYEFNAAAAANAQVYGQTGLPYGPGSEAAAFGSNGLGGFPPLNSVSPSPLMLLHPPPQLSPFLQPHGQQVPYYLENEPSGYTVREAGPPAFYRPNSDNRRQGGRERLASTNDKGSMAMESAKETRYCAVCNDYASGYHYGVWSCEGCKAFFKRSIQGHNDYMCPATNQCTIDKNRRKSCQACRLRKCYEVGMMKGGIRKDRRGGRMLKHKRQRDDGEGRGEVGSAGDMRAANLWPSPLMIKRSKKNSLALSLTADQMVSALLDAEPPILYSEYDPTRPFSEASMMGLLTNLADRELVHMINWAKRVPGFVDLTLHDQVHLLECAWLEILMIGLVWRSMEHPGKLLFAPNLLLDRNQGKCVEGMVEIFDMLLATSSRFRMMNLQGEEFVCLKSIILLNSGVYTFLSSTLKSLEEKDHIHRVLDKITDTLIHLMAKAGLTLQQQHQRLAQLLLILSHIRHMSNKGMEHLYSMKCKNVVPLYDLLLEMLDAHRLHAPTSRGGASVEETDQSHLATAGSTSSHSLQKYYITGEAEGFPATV
Text: (§1) FIG. 1. […] […]

[2] = target: T2, purified full-length human ERβ (Homo sapiens, UniProt Q92731); assay: as above; details: relative to estradiol = 100
T2 construct: using purified full-length human ERα and ERβ
Text: as §1

PgR gene = assay: PgR (genomic gene) mRNA expression, qPCR; details: MCF-7 cells; 1 μM PaPE or 10 nM E2 for 4 h where stated; versus vehicle or E2
Text: (§2) Quantitation of signal intensities is shown in panel at the right.

LRRC54 gene = assay: LRRC54 (non-genomic gene) mRNA expression, qPCR; details: MCF-7 cells; 1 μM PaPE or 10 nM E2 for 4 h where stated; versus vehicle, E2 or compound 2
Text: as §2

LRRC54 gene vs PgR gene = assay: preferential activation of non-genomic (LRRC54) over genomic (PgR) gene; details: relative to activation by E2
eNOS = eNOS activation in primary endothelial cells (14C-L-arginine to 14C-L-citrulline); type: cell-based, bovine; details: 15 min; 10 nM ligand (FIG. 9E)
MCF-7 cells = assay: oleic acid (OA)-induced MCF-7 cell proliferation, WST1; details: 100 nM OA, agent 1 μM, 6 days
Description: Screening of FFAs for stimulating effects on cell proliferation. […] FFA mix contains all the single free fatty acids tested in this experiment. Lipid mix (mixture of cholesterol and fatty acids) was purchased from Sigma. Six replicates were used in each assay, and the experiment was repeated twice. […] Mean±SEM is plotted.
(D) OA effect on MCF-7 cell proliferation with and without PaPE-1. Dose-response of OA on cell proliferation was tested alone or in combination with and without PaPE-1 (1 μM) for 6 days before WST1 assay. The experiment has six technical replicates and was repeated twice. A two-way analysis of variance (ANOVA) model was fitted to assess the contribution of OA dose and inhibitor (Ctrl, and PaPE-1) treatment on MCF-7 cell proliferation. When the main effects were statistically significant at α=0.05, pairwise t-tests with a Bonferroni correction were employed to identify if treatment were statistically different from each other. **** p<0.0001. Mean±SEM is plotted. […] In the above cell proliferation experiments, MCF-7 cells were treated in whole growth medium adding the designated compounds. The treatment went for 6 days and OD at 450 was measured by WST1 assay. […] The experiment is repeated twice. A two-way analysis of variance (ANOVA) model was fitted to assess the contribution of ligand (Veh or OA) and inhibitor (Ctrl, 4-OH-Tam, Fulv, RAD001 and PaPE-1) treatment on MCF-7 cell proliferation. When the main effects were statistically significant at α=0.05, pairwise t-tests with a Bonferroni correction were employed to identify if treatment were statistically different from each other. **** p<0.0001. Mean±SEM is plotted. […] The MCF-7 cells were treated with Veh, 1 μM 4-OH-tam, 1 μM Fulv, and 1 μM PaPE-1 for six days before WST-1 assay in serum from 63 obese individuals (Left) and in standard cell culture (Right).

T2 sequence (Q92731 whole entry): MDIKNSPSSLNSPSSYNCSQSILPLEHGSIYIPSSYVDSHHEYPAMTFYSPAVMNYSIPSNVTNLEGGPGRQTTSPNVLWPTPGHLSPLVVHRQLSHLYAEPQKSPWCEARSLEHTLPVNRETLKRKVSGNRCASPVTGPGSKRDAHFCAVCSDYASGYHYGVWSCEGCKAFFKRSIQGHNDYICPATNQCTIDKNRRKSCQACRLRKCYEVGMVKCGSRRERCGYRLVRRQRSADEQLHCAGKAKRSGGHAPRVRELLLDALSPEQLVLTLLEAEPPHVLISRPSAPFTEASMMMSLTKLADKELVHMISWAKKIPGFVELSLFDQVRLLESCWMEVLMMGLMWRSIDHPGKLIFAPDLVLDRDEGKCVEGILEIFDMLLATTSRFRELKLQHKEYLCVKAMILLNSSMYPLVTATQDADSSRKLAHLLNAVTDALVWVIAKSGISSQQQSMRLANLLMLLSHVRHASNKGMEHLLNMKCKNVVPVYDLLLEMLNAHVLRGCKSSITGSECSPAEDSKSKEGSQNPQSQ

Cc1cc(C)cc(-c2ccc3c(c2)CCC3O)c1 (stereo not drawn) [Compound 12, 5-(3,5-dimethylphenyl)-2,3-dihydro-1H-inden-1-ol]
ERα RBA (relative binding affinity) [1]: 0.001 ± 0
ERβ RBA (relative binding affinity) [2]: 0.002 ± 0.001
PgR (genomic gene) mRNA expression, in words (PgR gene): strongly stimulate the genomic gene PgR
LRRC54 (non-genomic gene) mRNA expression, in words (LRRC54 gene): some non-genomic activity

Cc1cc(-c2ccc(C(C)O)cc2)cc(C)c1O (stereo not drawn) [Compound 15, 4′-(1-hydroxyethyl)-3,5-dimethyl-[1,1′-biphenyl]-4-ol]
ERα RBA (relative binding affinity) [1]: 0.002 ± 0.001
ERβ RBA (relative binding affinity) [2]: 0.005 ± 0.003
preference for activation of the non-genomic pathway (LRRC54 over PgR), in words (LRRC54 gene vs PgR gene): some selectivity for the non-genomic gene but less than that of compound 2
eNOS / NOS activity (eNOS): increased NOS activity

Cc1cc(-c2ccc3c(c2)CCCC3O)cc(C)c1O (stereo not drawn) [Compound 16, 6-(4-hydroxy-3,5-dimethylphenyl)-1,2,3,4-tetrahydronaphthalen-1-ol]
ERα RBA (relative binding affinity) [1]: 0.002 ± 0.001
ERβ RBA (relative binding affinity) [2]: 0.004 ± 0.003
preference for activation of the non-genomic pathway (LRRC54 over PgR), in words (LRRC54 gene vs PgR gene): some selectivity for the non-genomic gene but less than that of compound 2
eNOS / NOS activity (eNOS): increased NOS activity

Cc1cc(-c2cccc(CO)c2)cc(C)c1O [Compound 24]
ERα RBA (relative binding affinity) [1]: 0.005 ± 0.001
ERβ RBA (relative binding affinity) [2]: 0.004 ± 0
PgR (genomic gene) mRNA expression, in words (PgR gene): slight higher than the vehicle level

Cc1cc(-c2cc(C)c(O)c(C)c2)ccc1CO [Compound 26]
ERα RBA (relative binding affinity) [1]: <0.001
ERβ RBA (relative binding affinity) [2]: 0.002 ± 0.001
PgR (genomic gene) mRNA expression, in words (PgR gene): slight higher than the vehicle level

Cc1cc(-c2ccc(CO)c(C(F)(F)F)c2)cc(C)c1O [Compound 27]
ERα RBA (relative binding affinity) [1]: 0.003 ± 0.001
ERβ RBA (relative binding affinity) [2]: 0.003 ± 0
PgR (genomic gene) mRNA expression, in words (PgR gene): slight higher than the vehicle level

COC1CC(O)c2ccc(-c3cc(C)c(O)c(C)c3)cc21 (stereo not drawn) [Compound 30]
ERα RBA (relative binding affinity) [1]: 0.002 ± 0.001
ERβ RBA (relative binding affinity) [2]: 0.002 ± 0.001
PgR (genomic gene) mRNA expression, in words (PgR gene): elevated both genomic and nongenomic gene expression to a higher level than does its parent compound 29
LRRC54 (non-genomic gene) mRNA expression, in words (LRRC54 gene): elevated both genomic and nongenomic gene expression to a higher level than does its parent compound 29

Oc1ccc(-c2ccc3c(c2)CCC3O)cc1 (stereo not drawn) [Compound 32]
ERα RBA (relative binding affinity) [1]: 0.005 ± 0.001
ERβ RBA (relative binding affinity) [2]: 0.190 ± 0.04
PgR (genomic gene) mRNA expression, in words (PgR gene): stimulate PgR gene expression at a level close to that of E2

Cc1cc(-c2cccc(CCO)c2)cc(C)c1O [Compound 44, 3′-(2-hydroxyethyl)-3,5-dimethyl-[1,1′-biphenyl]-4-ol]
ERα RBA (relative binding affinity) [1]: 0.001
ERβ RBA (relative binding affinity) [2]: 0.001
LRRC54 (non-genomic gene) mRNA expression, in words (LRRC54 gene): preferentially stimulate LRRC54 better than E2

Cc1cc(-c2ccc(CCO)cc2)cc(C)c1O [Compound 45, 4′-(2-hydroxyethyl)-3,5-dimethyl-[1,1′-biphenyl]-4-ol]
ERα RBA (relative binding affinity) [1]: 0.001
ERβ RBA (relative binding affinity) [2]: 0.002
LRRC54 (non-genomic gene) mRNA expression, in words (LRRC54 gene): preferentially stimulate LRRC54 better than E2

Cc1cc(-c2ccc3c(c2)CCC3O)ccc1O (stereo not drawn) [Compound 55, 5-(4-hydroxy-3-methylphenyl)-2,3-dihydro-1H-inden-1-ol]
ERα RBA (relative binding affinity) [1]: 0.002
ERβ RBA (relative binding affinity) [2]: 0.004
PgR (genomic gene) mRNA expression, in words (PgR gene): stimulated two fold greater than that with E2

Cc1cc(-c2ccc3c(c2)CCC3O)cc(CO)c1O (stereo not drawn) [Compound 56, 5-(4-hydroxy-3-(hydroxymethyl)-5-methylphenyl)-2,3-dihydro-1H-inden-1-ol]
ERα RBA (relative binding affinity) [1]: <0.001
ERβ RBA (relative binding affinity) [2]: <0.001
preference for activation of the non-genomic pathway (LRRC54 over PgR), in words (LRRC54 gene vs PgR gene): considerable non-genomic gene selectivity
LRRC54 (non-genomic gene) mRNA expression, in words (LRRC54 gene): increases the expression of the non-genomic LRRC54 gene

OCc1cc(-c2ccc3c(c2)CCC3O)ccc1O (stereo not drawn) [Compound 57, 5-(4-hydroxy-3-(hydroxymethyl)phenyl)-2,3-dihydro-1H-inden-1-ol]
preference for activation of the non-genomic pathway (LRRC54 over PgR), in words (LRRC54 gene vs PgR gene): considerable non-genomic gene selectivity
LRRC54 (non-genomic gene) mRNA expression, in words (LRRC54 gene): increases the expression of the non-genomic LRRC54 gene

Cc1cc(-c2ccc(O)c(CO)c2)cc(C)c1O [Compound 59, 3′-(hydroxymethyl)-3,5-dimethyl-[1,1′-biphenyl]-4,4′-diol]
preference for activation of the non-genomic pathway (LRRC54 over PgR), in words (LRRC54 gene vs PgR gene): selective expression of the non-genomic LRRC54 gene compared to E2
LRRC54 (non-genomic gene) mRNA expression, in words (LRRC54 gene): expression level is less than for compound 2

Cc1cc(-c2ccc(CO)c(O)c2)cc(C)c1O [Compound 60, 4-(hydroxymethyl)-3′,5′-dimethyl-[1,1′-biphenyl]-3,4′-diol]
ERα RBA (relative binding affinity) [1]: <0.001
ERβ RBA (relative binding affinity) [2]: ~0.001
preference for activation of the non-genomic pathway (LRRC54 over PgR), in words (LRRC54 gene vs PgR gene): selective expression of the non-genomic LRRC54 gene compared to E2
LRRC54 (non-genomic gene) mRNA expression, in words (LRRC54 gene): expression level is less than for compound 2

Oc1c(Cl)cc(-c2ccc3c(c2)CCC3O)cc1Cl (stereo not drawn) [Compound 63, 5-(3,5-dichloro-4-hydroxyphenyl)-2,3-dihydro-1H-inden-1-ol]
ERα RBA (relative binding affinity) [1]: 0.005
ERβ RBA (relative binding affinity) [2]: 0.006
preference for activation of the non-genomic pathway (LRRC54 over PgR), in words (LRRC54 gene vs PgR gene): stimulates the non-genomic gene LRRC54 selectively
LRRC54 (non-genomic gene) mRNA expression, in words (LRRC54 gene): two-fold less than that of compound 2

OCc1cc(-c2cc(Cl)c(O)c(Cl)c2)ccc1O [Compound 64, 3,5-Dichloro-3′-(hydroxymethyl)-[1,1′-biphenyl]-4,4′-diol]
preference for activation of the non-genomic pathway (LRRC54 over PgR), in words (LRRC54 gene vs PgR gene): selective expression of the non-genomic LRRC54 gene compared to E2
LRRC54 (non-genomic gene) mRNA expression, in words (LRRC54 gene): expression level is less than for compound 2

CC(=O)NCCNC(=O)CCC(C)(c1ccc(O)cc1)c1ccc(O)cc1 [PaPE-4, Diphenolic acid-NHEtNHAc]
eNOS / NOS activity (eNOS): increased NOS activity

CO[C@H]1C[C@@H]2CC[C@@H](C)[C@@](O)(O2)C(=O)C(=O)N2CCCC[C@H]2C(=O)O[C@H]([C@H](C)C[C@@H]2CC[C@@H](OCCO)[C@H](OC)C2)CC(=O)[C@H](C)/C=C(\C)[C@@H](O)[C@@H](OC)C(=O)[C@H](C)C[C@H](C)/C=C/C=C/C=C/1C [RAD001]
OA-induced MCF-7 cell proliferation with added agent (MCF-7 cells): blocked OA-induced cell proliferation; also recorded: suppressed

O=C(c1ccc(OCCN2CCCCC2)cc1)c1c(-c2ccc(O)cc2)sc2cc(O)ccc12 [Raloxifene, reference compound]
PgR (genomic gene) mRNA expression, in words (PgR gene): blocks expression of both the non-genomic LRRC54 and genomic PgR genes
preference for activation of the non-genomic pathway (LRRC54 over PgR), in words (LRRC54 gene vs PgR gene): Neither Raloxifene (RAL) nor hydroxytamoxifen (TOT) show selective activation of the non-genomic gene LRRC54
LRRC54 (non-genomic gene) mRNA expression, in words (LRRC54 gene): blocks expression of both the non-genomic LRRC54 and genomic PgR genes
